Reference: patent US20240416143A1, “PHOTONIC ANTIMICROBIAL WOUND SURFACE DRESSING” (The General Hospital Corporation, priority 2021, published 2024)

Assays:
MRSA = test: MIC of menadione by broth microdilution, with or without aBL; type: cell-based, methicillin-resistant Staphylococcus aureus; conditions: for MIC: Staphylococcus aureus, MRSA, light or radiation study
Experimental: The MICs of menadione in different bacterial strains were determined by a standard broth microdilution assay according to the Clinical and Laboratory Standards Institute. Briefly, menadione was prepared at 100 mg/mL in Tween 80/DMSO (1:1) as a stock solution. The stock solution was diluted to 2048 μg/mL in BHI and then serial dilutions were performed to 1024-0.015 μg/mL in a 96-well plate. Then, a 10 μL stationary growth-phase culture of 10^8 CFU/mL bacteria in BHI broth was added to the 96-well plate containing the serial dilutions of menadione. The medium containing a similar amount of Tween 80/DMSO (1:1) served as a control. The microplates were incubated at 37° C. for 24 hours and the lowest concentration of the compound capable of completely inhibiting bacterial growth was referred to as the MIC.
However, we investigated the effects of aBL (50 mW/cm^2) in potentiating the antibacterial activities of menadione in the three strains of bacteria. […] The highest fluence that we investigated was 125 J/cm^2, when we irradiated the bacteria for 42 minutes.

MRSA biofilm = test: Photoinactivation of 48-hour in vitro biofilms by adjuvant/antibiotic + antimicrobial blue light; type: cell-based, methicillin-resistant Staphylococcus aureus; conditions: for Bacterial Log10 CFU/mL Reduction after menadione + aBL: MRSA USA 300 biofilm 48 h
Experimental: The bacterial suspension was grown in a shaking incubator overnight in BHI broth. Cells were collected by centrifugation at 4,000 rpm for 5 minutes and suspended in PBS at a density of 10^6 CFU/mL. Then, the biofilms were grown for 48 hours (unless otherwise specified) in 96-well microtiter plates as described previously [Ref. 27], with a renewal of the media every 24 hours. Following the 48-hour biofilm growth, fresh 200 μL of PBS with or without menadione in different concentrations were added to the wells and the biofilms were incubated in the dark at 25° C. for 1 hour: 0, 0.5, 1, and 2 μg/mL for MRSA USA300, AF0001, IQ0064; 0, 1, 10, 30 and 50 μg/mL for P. aeruginosa PA01; and 0, 100, and 150 μg/mL for E. coli ATCC 25922. After that, the control and the menadione-treated biofilms were maintained without irradiation (“menadione/dark”). Simultaneously, the aBL was delivered to the other biofilm groups testing different power densities (50, 30, 15, and 10 mW/cm^2) while keeping the same radiant exposure of 250 J/cm^2. After the light exposure, the biofilms were carefully washed two times with PBS and 200 μL of PBS was added to each well. Then, the bacterial biofilms in each well were harvested by scratching with a sterile pipette tip and three wells of each group were pooled together in a 1.5 mL microcentrifuge tube. The total volume obtained, 600 μL (3 wells), was sonicated using a Branson 2510 Water Bath Sonicator (Marshall Scientific, LLC) for 5 minutes and the CFU was determined by 10-fold serial dilutions in PBS on BHI agar plates. CFU was counted after overnight incubation at 37° C. Experiments were performed in triplicate.
A bacterial suspension was grown in a shaking incubator overnight in BHI broth. Cells were collected by centrifugation at 4,000 rpm for 5 minutes and suspended in PBS at a density of 10^6 CFU/mL. Then, the biofilms were grown for 48 hours in 96-well microtiter plates with a renewal of the media every 24 hours. Following the 48-hour biofilm growth, fresh 200 μL of PBS with the tetracyclines minocycline, doxycycline, and demeclocycline in different concentrations were added to the wells and the biofilms were incubated in the dark at 25° C. for 1 hour: 0, 0.25, 0.5, and 1 μg/mL for minocycline; 0, 0.5, 1, and 2 μg/mL for doxycycline; and 0, 0.5, 1, and 2 for demeclocycline. After that, the control and the tetracycline-treated biofilms were maintained without irradiation (“menadione/dark”). Simultaneously, the aBL (405 nm) was delivered to the other biofilm groups testing different power densities (50, 30 mW/cm^2) while keeping the radiant exposures of 50-250 J/cm^2. After the light exposure, the biofilms were carefully washed two times with PBS and 200 μL of PBS was added to each well. Then, the bacterial biofilms in each well were harvested by scratching with a sterile pipette tip and three wells of each group were pooled together in a 1.5 mL microcentrifuge tube. The total volume obtained, 600 μL (3 wells), was sonicated using a Branson 2510 Water Bath Sonicator (Marshall Scientific, LLC) for 5 minutes and the CFU/mL was determined by 10-fold serial dilutions in PBS on BHI agar plates. CFU was counted after overnight incubation at 37° C.

P. aeruginosa biofilm = test: as above; type: cell-based, Pseudomonas aeruginosa
Experimental: The bacterial suspension was grown in a shaking incubator overnight in BHI broth. Cells were collected by centrifugation at 4,000 rpm for 5 minutes and suspended in PBS at a density of 10^6 CFU/mL. Then, the biofilms were grown for 48 hours (unless otherwise specified) in 96-well microtiter plates as described previously [Ref. 27], with a renewal of the media every 24 hours. Following the 48-hour biofilm growth, fresh 200 μL of PBS with or without menadione in different concentrations were added to the wells and the biofilms were incubated in the dark at 25° C. for 1 hour: 0, 0.5, 1, and 2 μg/mL for MRSA USA300, AF0001, IQ0064; […]; and 0, 100, and 150 μg/mL for E. coli ATCC 25922. After that, the control and the menadione-treated biofilms were maintained without irradiation (“menadione/dark”). Simultaneously, the aBL was delivered to the other biofilm groups testing different power densities (50, 30, 15, and 10 mW/cm^2) while keeping the same radiant exposure of 250 J/cm^2. After the light exposure, the biofilms were carefully washed two times with PBS and 200 μL of PBS was added to each well. Then, the bacterial biofilms in each well were harvested by scratching with a sterile pipette tip and three wells of each group were pooled together in a 1.5 mL microcentrifuge tube. The total volume obtained, 600 μL (3 wells), was sonicated using a Branson 2510 Water Bath Sonicator (Marshall Scientific, LLC) for 5 minutes and the CFU was determined by 10-fold serial dilutions in PBS on BHI agar plates. CFU was counted after overnight incubation at 37° C. Experiments were performed in triplicate.
A bacterial suspension was grown in a shaking incubator overnight in BHI broth. Cells were collected by centrifugation at 4,000 rpm for 5 minutes and suspended in PBS at a density of 10^6 CFU/mL. Then, the biofilms were grown for 48 hours in 96-well microtiter plates with a renewal of the media every 24 hours. Following the 48-hour biofilm growth, fresh 200 μL of PBS with the tetracyclines minocycline, doxycycline, and demeclocycline in different concentrations were added to the wells and the biofilms were incubated in the dark at 25° C. for 1 hour: 0, 0.25, 0.5, and 1 μg/mL for minocycline; 0, 0.5, 1, and 2 μg/mL for doxycycline; and 0, 0.5, 1, and 2 for demeclocycline. After that, the control and the tetracycline-treated biofilms were maintained without irradiation (“menadione/dark”). […] The total volume obtained, 600 μL (3 wells), was sonicated using a Branson 2510 Water Bath Sonicator (Marshall Scientific, LLC) for 5 minutes and the CFU/mL was determined by 10-fold serial dilutions in PBS on BHI agar plates. CFU was counted after overnight incubation at 37° C.

[1] = in vivo; cited from earlier work

CC1=CC(=O)c2ccccc2C1=O [menadione, 2-methyl-1,4-naphthoquinone]
MIC (MRSA; 5 min, aBL 15.62 J/cm^2 (5 mins.), 50 mW/cm^2): 8 µg/mL
MIC (MRSA; 0.175 h, aBL 31.25 J/cm^2 (10.5 mins.), 50 mW/cm^2): 4 µg/mL
MIC (MRSA; 0.35 h, aBL 62.5 J/cm^2 (21 mins.), 50 mW/cm^2): 1 µg/mL
MIC (MRSA; 0.7 h, aBL 125 J/cm^2 (42 mins.), 50 mW/cm^2): 0.0625 µg/mL
MIC (MRSA; 0 J/cm^2 (Dark)): 8 µg/mL
lowering of MIC by aBL (MRSA; aBL 125 J/cm^2 vs dark): 78%
biofilm reduction by menadione without irradiation (MRSA biofilm; 48 h biofilm, dark): < 1 log killing
biofilm killed by menadione plus aBL (MRSA biofilm; 48 h biofilm, 1 μg/mL menadione + aBL 250 J/cm^2 (50 mW/cm^2)): 4.85 log10 CFU/mL
biofilm killed by menadione plus aBL (MRSA biofilm; 48 h biofilm, 1 μg/mL menadione + aBL 250 J/cm^2 at 15 mW/cm^2): 3.01 log10 CFU/mL
Bacterial Log10 CFU/mL Reduction after menadione + aBL (MRSA biofilm; 10 mW/cm^2, 250 J/cm^2, 6 hours 56 minutes): −1.91 Log10 CFU/mL
Bacterial Log10 CFU/mL Reduction after menadione + aBL (MRSA biofilm; 15 mW/cm^2, 250 J/cm^2, 4 hours 37 minutes): −3.01 Log10 CFU/mL
Bacterial Log10 CFU/mL Reduction after menadione + aBL (MRSA biofilm; 30 mW/cm^2, 250 J/cm^2, 2 hours 18 minutes): −2.28 Log10 CFU/mL
Bacterial Log10 CFU/mL Reduction after menadione + aBL (MRSA biofilm; 50 mW/cm^2, 250 J/cm^2, 1 hours 23 minutes): −4.85 Log10 CFU/mL
Bacterial Log10 CFU/mL Reduction after menadione + aBL (MRSA biofilm; power density 0 mW/cm^2): 0 Log10 CFU/mL
biofilm reduction by menadione without irradiation (P. aeruginosa biofilm; 48 h biofilm, dark): < 1 log killing
biofilm eradicated by menadione plus aBL (P. aeruginosa biofilm; 48 h biofilm, 100 μg/mL menadione + aBL 250 J/cm^2 (50 mW/cm^2)): 6.6 log10 CFU/mL
potentiation of the effect of aBL by menadione (P. aeruginosa biofilm; 48 h in vitro biofilm, vs aBL alone): ~100 fold
adverse effect at high doses [1]: hepatitis
